Source: article PMC6874057, “Synthesis of Chalcone Derivatives: Inducing Apoptosis of HepG2 Cells via Regulating Reactive Oxygen Species and Mitochondrial Pathway” (Frontiers in Pharmacology, 2019)

What was measured:
WI-38 = assay: MTT cell viability assay, normal cell line WI-38; type: cell-based, human; conditions: Homo sapiens, WI-38, 48 h, normal cells, mean ± SE
Procedure: (§1) HeLa, A549, HepG2, HL-60, and WI-38 cell lines were incubated in DMEM solution containing 10% FBS for 48 h. The incubated tumor cells were seeded into 96-well plates (5 × 10^3 cells/well) to make them attach for 12 h. Afterwards, the cells were processed with the various concentrations of the synthetic compounds and 5-FU for 48 h. After removing the cell culture supernatant, 10 µl MTT (5 mg/ml) solution was dripped into the cells to generate a formazan product, which were dissolved by dimethyl sulfoxide (DMSO) 4 h later. Multifunction microplate reader (Bio-Rad Laboratories, Shanghai, China) was adopted to measure the absorbance at the wave length of 490 nm. The IC50 (the lowest drug concentration causing 50% of the tumor cells inhibition) was then calculated using GraphPad Prism Software (version 5.02) and used to indicate the cytotoxic effect of the target compounds on the selected tumor cells.

HepG2 cells [1] = assay: Cell cycle arrest by PI staining, flow cytometry; type: cell-based, human; conditions: for G2/M: 24 h
Procedure: HepG2 cells were seeded into six-well plates (3 × 10^5/well) overnight to allow the cells to grow adherently and then incubated with a14 at the concentrations of 0, 30, 40, 50, 60 or 70 µM for 24 and 48 h. After the incubation time, the cells were collected by centrifugation (1000 r/min) and fixed overnight with […] ethanol at 4°C, and then the cells were removed and washed three times with ice-cold PBS. Afterwards, the cells were added to RNase A (Beijing Solarbio Science & Technology Co., Ltd.), and incubated for 30 min at 37°C, after which PI (Beijing Solarbio Science & Technology Co., Ltd.) was added. The fluorescence was monitored by a Beckman Coulter flow cytometer (Beckman Coulter, Inc. California). Ten thousand events were collected per sample, and the data were analyzed using Modfit LT 5.0 software.

Caspase 3 in HepG2 cells = assay: Western blot, Caspase 3; type: cell-based, human; conditions: 48 h, compared to the control group; in words
Procedure: (§2) HepG2 cells (3 × 10^5 cells/well) were seeded into a six-well plate overnight for adherence, and then treated with a14 (0, 30, 40, 50, 60, and 70 µM) for 48 h. After the cells were collected by centrifugation, they were lysed with the radio immunoprecipitation assay (RIPA) buffer (high) containing 50 mM Tris (pH = 7.4), 150 mM NaCl, 1% TritonX-100, 1% sodium deoxycholate, 0.1% sodium dodecyl sulfate (SDS), 2 mM sodium pyrophosphate, 25 mM β-glycerophosphate, 1 mM ethylenediaminetetraacetic acid (EDTA), 1 mM Na3VO4, and 0.5 ug/ml leupeptin (Beijing Solarbio Science & Technology Co., Ltd.).The extract was then centrifuged at 12,000 rpm for 30 min and the total protein concentration was quantified using the BCA kit (Beijing Solarbio Science & Technology Co., Ltd.). The protein extracts were mixed with the SDS-PAGE protein loading buffer (Beijing Solarbio Science & Technology Co., Ltd.) and then boiled in 100°C water bath for 10 min. The gel was gelatinized using an SDS Gel Kit (Beijing Solarbio Science & Technology Co., Ltd.) and protein extracts were separated by protein SDS-polyacrylamide gel electrophoresis and transferred to Immobilon-NC Membrane (Beijing Solarbio Science & Technology Co., Ltd.). […]

Bcl-2 in HepG2 cells = assay: Western blot, Bcl-2; type: cell-based, human; conditions: different concentrations, 48 h, dose-dependent; in words
Procedure: as §2

HL-60 = assay: MTT cell viability assay, HL-60; type: cell-based, human; conditions: Homo sapiens, HL-60, 48 h, mean ± SE
Procedure: as §1

ROS level in HepG2 cells = assay: ROS level by DCFH-DA probe, flow cytometry; type: cell-based, human; conditions: a14 50 µM, 8 h (0 h: 4351.6)
Procedure: HepG2 cells were seeded into six-well plates (3 × 10^5 cells/well) overnight to make the cells grow adherently and then incubated with a14 (50 µM) for 0, 3, 6, 8, 9, and 12 h. After that, the cells were added to 1 ml DCFH-DA (10 µM) and incubated for 30 min in the dark. After the cells were washed twice by the pre-cooled PBS, the cells were trypsinized and collected by centrifugation. The cells of the blank group were implemented the same experimental procedures, except for the process with a14. Besides, 5 mM N-acetyl-L-cysteine (NAC) was applied as anti-oxidative substance to prevent the oxidation of the cells, which could entirely block the production of ROS induced by a14. The generation levels of ROS were evaluated in fluorescence intensity (FL-1, 530 nm) by Beckman Coulter flow cytometer (Beckman Coulter, Inc. California). The data collected was analyzed using the CytExpert 2.0 software embedded in Beckman flow cytometry, and the histogram was plotted by Origin Pro8.

Hela = assay: MTT cell viability assay, Hela; type: cell-based, human; conditions: Homo sapiens, HeLa, 48 h, mean ± SE
Procedure: as §1

HepG2 cells [2] = assay: Inhibition curve of a14 on HepG2 cells (MTT, 24, 48, 72 h); type: cell-based, human; conditions: in words
Procedure: HepG2 cells (5 × 10^3 cells/well) were seeded into the 96-well plates and kept to attach overnight. […] After the incubation time, 10 µl MTT was added to each well, and the culture was continued in a sterile incubator at 37°C for 4 h under the environment of 5% CO2. Then, the supernatant medium was discarded, and the solid was dissolved in 200 µl DMSO. Then, a multifunction microplate reader (Bio-Rad Laboratories, Shanghai, China) was applied to record the absorbance at 490 nm. Cell growth inhibition rates at different concentrations were calculated and plotted using Origin Pro8 software. Each set of data represented the average value of three independent experiments.

[3] = test system: adherent tumor cell lines (HepG2, A549 and Hela); assay: MTT assay, summary over adherent tumor cell lines; type: cell-based; conditions: Homo sapiens; span of IC50 over compounds a11-a14 and adherent tumor cell lines; read-out: IC50 range over cell lines
Procedure: as §1

Structure (SMILES): COc1cc(/C=C/C(=O)c2ccc(O)c(C(N)=O)c2)cc(OC)c1OC [a14]
- IC50 (WI-38): 121.3 ± 0.87 µM
- G2/M (HepG2 cells [1]; a14 30 µM): 19.07%
- increase of percentage of G2/M compared with the untreated group (HepG2 cells [1]; a14 50 µM, 48 h): 73.82%
- G2/M (HepG2 cells [1]; a14 70 µM): 79.57%
- expression level of Caspases 3 (Caspase 3 in HepG2 cells): decrease
- expression of anti-apoptotic proteins (Bcl-2) (Bcl-2 in HepG2 cells): down-regulated
- IC50 (HL-60): 121 ± 3.58 µM
- intracellular fluorescence intensity (DCFH-DA) (ROS level in HepG2 cells): 236197.3
- IC50 (Hela): 23.3 ± 2.35 µM
- inhibitory activities on HepG2 cells (HepG2 cells [2]; 24, 48, 72 h, different concentrations): dose- and time-dependent manner
- growth inhibition effect on HepG2 cells (HepG2 cells [2]; action time 48 or 72 h): significantly improved
- cytotoxic effect on HepG2 cells (HepG2 cells [2]; action time less than 24 h): relatively weak
- IC50 [3]: 23.3 to 54.4 µM
